Measured values as given in ChEMBL document CHEMBL1201862, “PubChem BioAssay data set” (2004).
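Dose response: 5 concentrations. Exposure: 48 h. Format: 96-well plates. Endpoint: linear interpolation; highest concentration if not reached. GI50: concentration for 50% inhibition of growth.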 Active and inactive are the calls of the source. No stated cut-off is given here; in the data, active = GI50 up to about 1.1 µM and inactive = higher.

What was measured:
Experiment in all cases: DTP human tumour cell line panel, 48 h
786-0 = tested on: 786-0
CCRF-CEM = tested on: CCRF-CEM
COLO 205 = tested on: COLO 205
HL-60 = tested on: HL-60
IGROV-1 = tested on: IGROV-1
K562 = tested on: K562
LOX IMVI = tested on: LOX IMVI
NCI-H226 = tested on: NCI-H226
SF-268 = tested on: SF-268
SF-295 = tested on: SF-295
SK-MEL-2 = tested on: SK-MEL-2
SK-MEL-5 = tested on: SK-MEL-5
SNB-75 = tested on: SNB-75
SW-620 = tested on: SW-620
UACC-62 = tested on: UACC-62
UO-31 = tested on: UO-31
A498 = tested on: A498
HOP-92 = tested on: HOP-92

Measured: GI50

O=C1SC(c2ccccc2)(c2ccccc2)c2ccccc21
inactive: 786-0 > 100 µM | CCRF-CEM 94.6 µM | COLO 205 > 100 µM | HL-60 41.3 µM | IGROV-1 > 100 µM | K562 74.5 µM | LOX IMVI > 100 µM | NCI-H226 > 100 µM | SF-268 > 100 µM | SF-295 > 100 µM | SK-MEL-2 > 100 µM | SK-MEL-5 46.3 µM | SNB-75 > 100 µM | SW-620 71.6 µM | UACC-62 68.1 µM | UO-31 56.2 µM

CC(C)(C)NNC(=O)CCn1[nH]c(=O)c(Cl)c(Cl)c1=O
inactive: 786-0 > 100 µM | A498 10.7 µM | CCRF-CEM > 100 µM | COLO 205 > 100 µM | HL-60 > 100 µM | IGROV-1 > 100 µM | K562 > 100 µM | LOX IMVI > 100 µM | NCI-H226 > 100 µM | SF-268 > 100 µM | SF-295 > 100 µM | SK-MEL-2 > 100 µM | SNB-75 > 100 µM | SW-620 > 100 µM | UACC-62 > 100 µM | UO-31 > 100 µM

Cc1nc(=O)[nH]c2[nH][nH]c(=O)c12
inactive: 786-0 > 100 µM | CCRF-CEM > 100 µM | COLO 205 > 100 µM | HL-60 > 100 µM | HOP-92 > 100 µM | IGROV-1 > 100 µM | K562 > 100 µM | LOX IMVI > 100 µM | NCI-H226 > 100 µM | SF-268 > 100 µM | SF-295 > 100 µM | SK-MEL-2 > 100 µM | SW-620 > 100 µM | UACC-62 > 100 µM

COc1cc2c(cc1OC)-c1c3cc(O)ccc3nn[n+]1CC2
inactive: 786-0 > 100 µM | CCRF-CEM > 100 µM | COLO 205 > 100 µM | HL-60 > 100 µM | IGROV-1 > 100 µM | K562 > 100 µM | LOX IMVI > 100 µM | NCI-H226 > 100 µM | SF-268 > 100 µM | SF-295 > 100 µM | SK-MEL-5 > 100 µM | SNB-75 > 100 µM | SW-620 > 100 µM | UACC-62 > 100 µM

CN(C(=O)/C=C/c1ccccc1)C1C2CN3CCC(O2)C13 (configuration not stated)
inactive: 786-0 > 100 µM | A498 > 100 µM | CCRF-CEM > 100 µM | COLO 205 > 100 µM | HL-60 > 100 µM | IGROV-1 > 100 µM | K562 > 100 µM | LOX IMVI > 100 µM | NCI-H226 > 100 µM | SF-268 > 100 µM | SF-295 > 100 µM | SK-MEL-2 > 100 µM | SK-MEL-5 > 100 µM | SNB-75 > 100 µM | SW-620 > 100 µM | UACC-62 > 100 µM | UO-31 > 100 µM
